Measured values: the NIST ThermoML archive (doi:10.1021/je900545v)

How the values were obtained:
[1] = refractive index (Na D-line) (dimensionless); xn = mol fraction of the nth substance listed; conditions: 298.15 K, 101 kPa, Liquid
[2] = xn = mol fraction of the nth substance listed; conditions: 298.15 K, 101 kPa, Liquid; for electrical conductivity: DDSJ-308A Conductometer

C=CCn1cc[n+](C)c1.[Cl-] [1-allyl-3-methylimidazolium chloride] + O
Conditions | electrical conductivity, [2] [S/m] | mass density, [2] [kg/m3] | refractive index, [1] | viscosity, [2] [mPa·s]
x1 = 0.000171 | 0.0795 | 1005 | 1.3329 | 0.8974
x1 = 0.000362 | 0.169 | 1007.5 | 1.333 | 0.8946
x1 = 0.000553 | 0.258 | 1001 | 1.3333 | 0.8979
x1 = 0.000754 | 0.345 | 1004.5 | 1.3336 | 0.8954
x1 = 0.001151 | 0.503 | 1004 | 1.334 | 0.9008
x1 = 0.001575 | 0.665 | 1004.7 | 1.3346 | 0.9038
x1 = 0.002478 | 0.969 | 1003 | 1.336 | 0.9234
x1 = 0.003359 | 1.24 | 1004.2 | 1.3375 | 0.9356
x1 = 0.004859 | 1.65 | 1005 | 1.34 | 0.9802
x1 = 0.006386 | 2.66 | 1006 | 1.3421 | 0.9919
x1 = 0.008102 | 3.02 | 1007.6 | 1.3452 | 1.043
x1 = 0.009949 | 3.29 | 1008.5 | 1.347 | 1.061
x1 = 0.01179 | 3.69 | 1011.6 | 1.3495 | 1.093
x1 = 0.01373 | 3.94 | 1016.5 | 1.352 | 1.129
x1 = 0.01765 | 4.65 | 1017.2 | 1.3574 | 1.193
x1 = 0.02156 | 5.33 | 1021.8 | 1.3635 | 1.252
x1 = 0.02565 | 5.97 | 1024 | 1.3676 | 1.322
x1 = 0.02973 | 6.23 | 1026 | 1.373 | 1.394
x1 = 0.03394 | 7.15 | 1029.2 | 1.3775 | 1.473
x1 = 0.04442 | 6.83 | 1040 | 1.3888 | 1.677
x1 = 0.05536 | 7.66 | 1046.8 | 1.3995 | 1.9
x1 = 0.06646 | 7.92 | 1054.2 | 1.4084 | 2.166
x1 = 0.07857 | 7.47 | 1061.8 | 1.4176 | 2.475
x1 = 0.09138 | 7.2 | 1073 | 1.4315 | 3.118
x1 = 0.1143 | 6.48 | 1084.1 | 1.4464 | 3.867
x1 = 0.1369 | 5.67 | 1092 | 1.4574 | 4.806
x1 = 0.1616 | 4.92 | 1100 | 1.4673 | 5.974
x1 = 0.1867 | 4.13 | 1105.8 | 1.4742 | 7.441
x1 = 0.211 | 3.91 | 1110.2 | 1.4831 | 7.9
x1 = 0.2245 | 3.82 | 1108.9 | – | 8.518
x1 = 0.3233 | 2.63 | 1127.8 | – | 18
x1 = 0.5083 | 0.00974 | 1132.8 | – | 48
x1 = 1 | 0.00695 | 1166 | – | 821
